Measured values reported in ChEMBL document CHEMBL5226326, “Discovery of 1-Benzoyl 4-Phenoxypiperidines as Small-Molecule Inhibitors of the β-Catenin/B-Cell Lymphoma 9 Protein-Protein Interaction” (J Med Chem, 2021).
Activity calls are given as the source filed them. No cut-off for these calls is given here.

What was measured:
[1] = target: T1, beta-catenin-B-cell lymphoma 9 protein complex (Homo sapiens, UniProt P35222); assay: Inhibition of full length beta-catenin (1 to 781 residues) (unknown origin) expressed in Escherichia coli BL21 (DE3)/N-terminal biotinylated human BCL9 HD2 (350 to 375 residues) protein-protein interaction incubated for 1 hr by Alphascreen assay
T1 sequence (P35222 whole entry): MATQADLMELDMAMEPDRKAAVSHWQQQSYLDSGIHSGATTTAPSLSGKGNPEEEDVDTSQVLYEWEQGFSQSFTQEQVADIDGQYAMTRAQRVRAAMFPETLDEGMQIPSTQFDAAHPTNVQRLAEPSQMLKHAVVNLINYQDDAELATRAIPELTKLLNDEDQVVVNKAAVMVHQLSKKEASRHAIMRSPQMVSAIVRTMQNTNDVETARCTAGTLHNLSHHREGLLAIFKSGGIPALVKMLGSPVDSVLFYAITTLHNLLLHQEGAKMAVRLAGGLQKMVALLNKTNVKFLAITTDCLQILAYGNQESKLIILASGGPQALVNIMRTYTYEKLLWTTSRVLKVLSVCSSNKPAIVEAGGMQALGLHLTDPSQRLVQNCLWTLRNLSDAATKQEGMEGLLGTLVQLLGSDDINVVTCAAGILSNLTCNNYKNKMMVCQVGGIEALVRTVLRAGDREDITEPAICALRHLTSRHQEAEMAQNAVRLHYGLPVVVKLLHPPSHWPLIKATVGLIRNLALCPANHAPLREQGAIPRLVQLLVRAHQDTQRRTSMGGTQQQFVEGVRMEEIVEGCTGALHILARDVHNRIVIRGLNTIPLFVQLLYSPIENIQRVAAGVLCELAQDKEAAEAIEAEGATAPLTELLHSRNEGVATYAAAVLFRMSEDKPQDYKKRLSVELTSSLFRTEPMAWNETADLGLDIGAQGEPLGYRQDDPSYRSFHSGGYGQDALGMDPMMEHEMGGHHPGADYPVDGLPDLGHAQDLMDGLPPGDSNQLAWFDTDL
T1 sequence (O00512 whole entry): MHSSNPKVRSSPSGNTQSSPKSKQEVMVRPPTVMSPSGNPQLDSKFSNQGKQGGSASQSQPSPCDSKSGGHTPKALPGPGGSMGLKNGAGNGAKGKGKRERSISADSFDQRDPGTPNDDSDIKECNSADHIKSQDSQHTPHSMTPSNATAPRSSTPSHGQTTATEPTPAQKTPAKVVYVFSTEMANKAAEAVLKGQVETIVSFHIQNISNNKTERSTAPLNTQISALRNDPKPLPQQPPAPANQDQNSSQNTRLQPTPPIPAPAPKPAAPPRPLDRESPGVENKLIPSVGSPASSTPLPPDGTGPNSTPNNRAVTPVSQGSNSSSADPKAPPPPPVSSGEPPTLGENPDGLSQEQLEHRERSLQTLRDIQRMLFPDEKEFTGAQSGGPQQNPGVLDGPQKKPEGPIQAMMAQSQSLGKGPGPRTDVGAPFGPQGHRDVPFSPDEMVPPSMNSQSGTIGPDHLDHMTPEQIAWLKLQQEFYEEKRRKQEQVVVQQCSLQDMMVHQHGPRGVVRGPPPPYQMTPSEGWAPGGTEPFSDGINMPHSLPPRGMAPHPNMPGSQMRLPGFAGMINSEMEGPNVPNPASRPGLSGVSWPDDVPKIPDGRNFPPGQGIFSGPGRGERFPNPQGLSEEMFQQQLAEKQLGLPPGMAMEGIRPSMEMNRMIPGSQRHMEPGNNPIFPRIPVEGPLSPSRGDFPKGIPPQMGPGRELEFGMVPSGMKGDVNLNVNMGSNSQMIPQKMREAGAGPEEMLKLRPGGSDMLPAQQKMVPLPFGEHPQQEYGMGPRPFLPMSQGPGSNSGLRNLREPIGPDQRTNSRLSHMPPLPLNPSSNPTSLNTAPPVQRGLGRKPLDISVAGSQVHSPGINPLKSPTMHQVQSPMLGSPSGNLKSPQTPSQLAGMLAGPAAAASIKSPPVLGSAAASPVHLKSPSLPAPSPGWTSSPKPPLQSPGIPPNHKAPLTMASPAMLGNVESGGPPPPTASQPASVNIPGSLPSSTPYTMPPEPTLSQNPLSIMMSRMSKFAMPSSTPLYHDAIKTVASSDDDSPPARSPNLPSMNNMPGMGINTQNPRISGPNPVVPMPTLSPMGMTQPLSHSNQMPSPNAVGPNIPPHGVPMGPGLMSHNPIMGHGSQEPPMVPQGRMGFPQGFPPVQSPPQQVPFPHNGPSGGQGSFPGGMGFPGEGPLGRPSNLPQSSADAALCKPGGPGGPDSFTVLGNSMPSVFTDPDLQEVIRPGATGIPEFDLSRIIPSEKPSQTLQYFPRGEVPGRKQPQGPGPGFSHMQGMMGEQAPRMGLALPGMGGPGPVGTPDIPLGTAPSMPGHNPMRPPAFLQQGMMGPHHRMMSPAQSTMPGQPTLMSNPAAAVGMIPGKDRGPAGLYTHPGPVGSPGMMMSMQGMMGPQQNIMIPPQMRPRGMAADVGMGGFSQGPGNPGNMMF

[2] = target: T1, beta-catenin-B-cell lymphoma 9 protein complex; assay: Inhibition of full length beta-catenin (1 to 781 residues) (unknown origin) expressed in Escherichia coli BL21 (DE3)/N-terminal biotinylated human BCL9 HD2 (350 to 375 residues) protein-protein interaction assessed as inhibition constant incubated for 1 hr by Alphascreen assay
SW480 [3] = assay: Inhibition of full length beta-catenin D145A mutant/N-terminal biotinylated human BCL9 HD2 (350 to 375 residues) protein-protein interaction in human SW480 cells at 1 to 10 uM incubated for 3 hr by immunoblot based pull-down assay; type: cell-based; settings: dose 1-10 µM
[4] = target: T2, beta-catenin-B-cell lymphoma 9 protein complex (Homo sapiens) (UniProt P35222+O00512); assay: Inhibition of full length wild type beta-catenin/N-terminal biotinylated human BCL9 HD2 (350 to 375 residues) protein-protein interaction in human SW480 cells at 1 to 10 uM incubated for 3 hr by immunoblot based pull-down assay; type: cell-based; settings: dose 1-10 µM
SW480 [5] = assay: Inhibition of full length beta-catenin E155A mutant/N-terminal biotinylated human BCL9 HD2 (350 to 375 residues) protein-protein interaction in human SW480 cells at 1 to 10 uM incubated for 3 hr by immunoblot based pull-down assay; type: cell-based; settings: dose 1-10 µM
SW480 [6] = assay: Inhibition of Wnt/beta-catenin transactivation signalling in human SW480 cells transfected with renilla luciferase and FOPFlash reporter gene at 3.125 uM incubated for 24 hrs by dual-luciferase assay (reference value: 100%); type: cell-based; settings: values are per cent of control
SW480 [7] = assay: Inhibition of Wnt/beta-catenin signaling pathway in human SW480 cells assessed as reduction in Axin2 level at 12.5 uM incubated for 24 hrs by qRT-PCR analysis (reference value: 100%); type: cell-based; settings: values are per cent of control
Homo sapiens [8] = species: Homo sapiens; assay: Selectivity ratio, ratio of IC50 for inhibition of Wnt/beta-catenin transactivation signalling in human HEK293 cells transfected with TOPFlash reporter gene to IC50 for inhibition of Wnt/beta-catenin D145A/E155A mutant transactivation signalling in human HEK293 cells transfected with TOPFlash reporter gene; type: cell-based
SW480 [9] = assay: Inhibition of Wnt/beta-catenin signaling pathway in human SW480 cells assessed as reduction in Axin2 level at 1 to 12.5 uM incubated for 24 hrs by western blot analysis; type: cell-based; settings: dose 1-12.5 µM
SW480 [10] = assay: Inhibition of Wnt/beta-catenin signaling pathway in human SW480 cells assessed as reduction in MMP7 level at 12.5 uM incubated for 24 hrs by qRT-PCR analysis (reference value: 100%); type: cell-based; settings: values are per cent of control
SW480 [11] = assay: Inhibition of Wnt/beta-catenin transactivation signalling in human SW480 cells transfected with renilla luciferase and FOPFlash reporter gene at 6.25 uM incubated for 24 hrs by dual-luciferase assay (reference value: 100%); type: cell-based; settings: values are per cent of control
Homo sapiens [12] = species: Homo sapiens; assay: Selectivity ratio, ratio of Ki for inhibition of full length beta-catenin (1 to 781 residues) (unknown origin) expressed in Escherichia coli BL21 (DE3)/N-terminal biotinylated human BCL9 HD2 (350 to 375 residues) protein-protein interaction to Ki for inhibition of full length beta-catenin (1 to 686 residues) (unknown origin) expressed in Escherichia coli BL21 (DE3)/N-terminal biotinylated human E-cadherin (824 to 877 residues) protein-protein interaction
SW480 [13] = assay: Inhibition of Wnt/beta-catenin signaling pathway in human SW480 cells assessed as reduction in HPRT level at 12.5 uM incubated for 24 hrs by qRT-PCR analysis (reference value: 100%); type: cell-based; settings: values are per cent of control
[14] = target: Catenin beta-1/Cadherin-1 (Homo sapiens) (UniProt P35222+P12830); assay: Inhibition of beta-catenin/E-cadherin protein-protein interaction in human HCT-116 cells at 1 to 12.5 uM incubated for 24 hr by Co-immunoprecipitation assay; type: cell-based; settings: dose 1-12.5 µM
SW480 [15] = assay: Inhibition of Wnt/beta-catenin transactivation signalling in human SW480 cells transfected with renilla luciferase and FOPFlash reporter gene at 1.56 uM incubated for 24 hrs by dual-luciferase assay (reference value: 100%); type: cell-based; settings: values are per cent of control
[16] = target: T2, beta-catenin-B-cell lymphoma 9 protein complex (Homo sapiens); assay: Inhibition of beta-catenin/BCL9 protein-protein interaction in human HCT-116 cells at 1 to 12.5 uM incubated for 24 hr by Co-immunoprecipitation assay; type: cell-based; settings: dose 1-12.5 µM
SW480 [17] = assay: Inhibition of Wnt/beta-catenin signaling pathway in human SW480 cells assessed as reduction in BCL9L level at 12.5 uM incubated for 24 hrs by qRT-PCR analysis (reference value: 100%); type: cell-based; settings: values are per cent of control

Catenin beta-1/Cadherin-1 (Homo sapiens), sequence (P12830 155-882 partner limits assumed, one chain of several): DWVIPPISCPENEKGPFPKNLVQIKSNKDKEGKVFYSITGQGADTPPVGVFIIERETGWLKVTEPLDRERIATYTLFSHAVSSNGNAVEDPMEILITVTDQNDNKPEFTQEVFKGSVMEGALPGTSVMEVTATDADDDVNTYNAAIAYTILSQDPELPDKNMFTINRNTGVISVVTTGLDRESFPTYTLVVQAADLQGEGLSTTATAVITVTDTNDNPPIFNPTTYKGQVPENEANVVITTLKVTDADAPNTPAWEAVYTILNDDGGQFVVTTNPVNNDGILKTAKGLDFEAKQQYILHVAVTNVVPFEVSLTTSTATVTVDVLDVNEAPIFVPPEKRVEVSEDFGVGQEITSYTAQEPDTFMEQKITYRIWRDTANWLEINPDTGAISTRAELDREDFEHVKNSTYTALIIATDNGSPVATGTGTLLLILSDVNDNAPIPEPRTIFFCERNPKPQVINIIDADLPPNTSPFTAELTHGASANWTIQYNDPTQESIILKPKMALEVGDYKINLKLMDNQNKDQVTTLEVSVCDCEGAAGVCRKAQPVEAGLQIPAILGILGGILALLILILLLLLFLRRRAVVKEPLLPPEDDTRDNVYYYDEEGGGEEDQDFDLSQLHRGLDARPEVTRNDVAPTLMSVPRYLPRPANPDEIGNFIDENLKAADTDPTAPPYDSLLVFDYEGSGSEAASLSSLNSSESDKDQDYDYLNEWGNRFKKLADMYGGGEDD

With `CN(C)C(=O)c1ccc(N2CCNCC2)cc1OC1CCN(C(=O)c2ccc(O[C@H]3CCNC3)c(C3CCC(C(C)(C)C)CC3)c2)CC1` (mixture of isomers) as the compound, how does the IC50 [1] read?
The IC50 was over 100 µM.

And the Ki [2]?
Its Ki is over 84 µM.

Which IC50 [1] does the source give for `CNC(=O)c1ccc(N2CCNCC2)cc1OC1CCN(C(=O)c2ccc(O[C@H]3CCNC3)c(C3CCC(C(C)(C)C)CC3)c2)CC1` (mixture of isomers) here?
The IC50 was 47 µM.

What about the Ki [2] of the same compound?
Its Ki is 38 µM.

How did the IC50 [1] turn out when `CC(C)(C)C1CCC(c2cc(C(=O)N3CCC(Oc4cc(N5CCNCC5)ccc4C(N)=O)CC3)ccc2O[C@H]2CCNC2)CC1` (mixture of isomers) was run?
The IC50 was 20 µM.

What about the Ki [2] of the same compound?
Its Ki is 16 µM.

Which inhibition (SW480 [3]) does the source give for `CC(C)(C)C1CCC(c2cc(C(=O)N3CCC(Oc4cc(N5CCNCC5)ccc4C#N)CC3)ccc2O[C@@H]2CNC[C@H]2OCCOCCOCCNC(=O)CCCC[C@@H]2SC[C@@H]3NC(=O)N[C@@H]32)CC1` (mixture of isomers) here?
Its inhibition is “inactive”.

And the inhibition [4]?
The inhibition was “Active”.

What about the inhibition (SW480 [5]) of the same compound?
Its inhibition is “inactive”.

Which IC50 [1] does the source give for `CC(C)(C)C1CCC(c2cc(C(=O)N3CCC(Oc4cc(N5CCNCC5)ccc4C#N)CC3)ccc2O[C@H]2CCNC2)CC1` (mixture of isomers; 36) here?
Its IC50 is 1.5 µM.

And the Ki [2]?
The Ki was 1.2 µM.

With `CC(C)(C)C1CCC(c2cc(C(=O)N3CCC(Oc4cc(N5CCNCC5)ccc4C#N)CC3)ccc2O[C@H]2CCNC2)CC1` (mixture of isomers; 44) as the compound, how does the IC50 [1] read?
The IC50 was 3.3 µM.

What about the Ki [2] of the same compound?
Its Ki is 2.7 µM.

Which results are given for `CC(C)(C)C1CCC(c2cc(C(=O)N3CCC(Oc4cc(N5CCNCC5)ccc4C#N)CC3)ccc2O[C@H]2CCNC2)CC1` (mixture of isomers; cis)?
residual activity (SW480 [6]): 104%; response, % of control (SW480 [7]): 9.28%; Ratio IC50 (Homo sapiens [8]): 4.2; inhibition (SW480 [9]): Active; response, % of control (SW480 [10]): 41.8%; residual activity (SW480 [11]): 96.5%; Ratio Ki (Homo sapiens [12]): 20; response, % of control (SW480 [13]): 99.6%; inhibition [14]: inactive; residual activity (SW480 [15]): 100%; inhibition [16]: Active; response, % of control (SW480 [17]): 18.6%
